Results on 3 compounds are retold here after patent publication US10226503B2, “Plant extract composition for reducing topical fat and promoting weight loss as well as applications thereof” (Caliway Biopharmaceuticals Co., Ltd., priority 2014, dated 2019).

Series [1] deals with lower inguinal subcutaneous fat. Description: Embodiment 10: resveratrol:curcumin ratio effect (with ELP) on subcutaneous fat of high-fat diet rats. It is filed as in vivo, Sprague-Dawley rats. The settings on record: 5 mg/mL with ELP, injected as in Embodiment 9, relative to HFD group 100±22.3%.
Description: The bilateral lower inguinal subcutaneous fat pads of rats were dissected and weighed, and the weights of the bilateral lower inguinal subcutaneous fat pads were summed to calculate the amount of lower inguinal subcutaneous fat. […] The data were presented as mean±SD and analyzed by one-way ANOVA. Statistical results were shown as symbols or letters. Different symbols or letters indicates statistically significant difference (p<0.05), and identical symbols or letters indicates no statistically significant difference (p>0.05).
The preparation of pharmaceutical composition (curcumin solution, resveratrol solution, UL003C solution, UL003R solution, UL005 solution, UL006 solution, UL003C6 solution, or UL003R4 solution) in each group was roughly the same as the experimental procedure in Experiment 9. The only differences were the ratio of resveratrol and curcumin. In this experiment, the guideline of adding all of the ratio of resveratrol and curcumin, the weight of ELP, and the weight of normal saline for injection was shown in Table 1.
In this experiment, the ratios of resveratrol to curcumin in the first group to the eighth group were 0:1, 1:0, 1:19, 9:1, 1:1, 1:30, 1:50, 20:1, respectively, and the final concentrations of resveratrol and curcumin in the pharmaceutical compositions prepared in the first to the eighth group were 5 mg/mL. […]
Series [2] relates to adipose tissue in the inferior inguinal region. The series can be described thus: Embodiment 10: observation of the injected inferior inguinal region after dissection. In kind it is in vivo, Sprague-Dawley rats. The settings on record: FIG. 11A-F. An excerpt: There were 9 groups in this experiment, that is, the HFD group, the curcumin group, the resveratrol group, the UL003C group, the UL003R group, the UL005 group, the UL006 group, the UL003C6 group, and the UL003R4 group. The rats were fed and injected in the same manner described in Embodiment 9.

Series [3] in a line: Embodiment 10: resveratrol:curcumin ratio effect (with ELP) on body weight gain of high-fat diet rats. It is filed as in vivo, Sprague-Dawley rats. The settings on record: 5 mg/mL with ELP, relative to HFD group 100.0±25.7%.
Protocol: The body weight of each rat was recorded and defined as the “post-experimental body weight” of each rat. The “total body weight gain” of each rat was obtained by subtracting its “pre-experimental body weight” from its “post-experimental body weight”. The “relative weight gain” was obtained by dividing the total body weight gain of each group by the total body weight gain of the HFD group.
The only differences were the ratio of resveratrol and curcumin.
In this experiment, the ratios of resveratrol to curcumin in the first group to the eighth group were 0:1, 1:0, 1:19, 9:1, 1:1, 1:30, 1:50, 20:1, respectively, and the final concentrations of resveratrol and curcumin in the pharmaceutical compositions prepared in the first to the eighth group were 5 mg/mL. That is, the preparation method of pharmaceutical composition in the first to the eighth group, the weight ratios of resveratrol to curcumin were 0:1, 1:0, 1:19, 9:1, 1:1, 1:30, 1:50, 20:1, respectively, and the final concentrations of resveratrol and curcumin in the prepared pharmaceutical compositions were 5 mg/mL. Wherein, when the final concentration of drug was presented as mg/mL, it indicated the number of milligrams of resveratrol and curcumin per milliliter of pharmaceutical composition.
Series [4] concerns mature adipocytes (3T3-L1). Description: Adipocyte apoptosis assay (V), Annexin V/PI flow cytometry. In kind it is cell-based. The settings on record: 50 ppm, 24 hours, DMSO control 5.14±2.05%. The procedure:
3T3-L1 cells were incubated in 12-well plates with 1×10^5 cells per well. The medium was replaced with a DMI medium containing 5 μg/ml of insulin, 0.1 μM of dexamethasone, and 0.5 mM of 3-isobutyl-1-methylxanthine (referred as IBMX) on the third day of incubation. After seven days incubation in the medium containing differentiation agent and waiting until the adipocyte cells matures, with the exception of the DMSO solvent control group, 50 ppm of curcumin, resveratrol, composition UL003C6, composition UL003C5, composition UL003C4, composition UL003C3, composition UL003C2, composition UL003C1, composition UL003B, composition UL003R1, composition UL003R2, and composition UL003R3 were added to different wells respectively; there are 13 groups in the experiment, and four replicates were performed in each group.
Please refer to Table 1, which presents the experimental matters and their final concentration in each group. […]
After administration process and 24 hours incubation, cells were collected and Annexin V/PI stain was performed. Cell apoptosis was analyzed by flow cytometry, wherein Annexin V−PI− cells represented the number of the survival mature adipocytes, and Annexin V+PI+ cells represented the number of the apoptotic mature adipocytes; this method is used to compare the apoptosis degree induced by the experimental matters in each group.

Series [5] concerns mature adipocytes (3T3-L1). Description: Adipocyte apoptosis assay (IV), Annexin V/PI flow cytometry. In kind it is cell-based. The conditions noted are these: 100 ppm, 24 hours. On the procedure: In this embodiment, the effect of composition UL003C in the present invention on mature adipocytes apoptosis promotion was compared with that of the well-known sodium deoxycholate. In this embodiment, 3T3-L1 cells were incubated in 12-well plates with 1×10^5 cells per well. The medium was replaced with an incubation fluid containing 5 μg/ml of insulin differentiation agent, 1 μM of dexamethasone, and 0.5 mM of 3-isobutyl-1-methylxanthine on the fourth day of incubation. After four days incubation in the incubation fluid containing differentiation agent and waiting until the adipocyte cells matures, with the exception of the DMSO solvent control group, 100 ppm of composition UL003C and sodium deoxycholate were added to different wells respectively; there are three groups in the experiment, and three replicates were performed in each group. After administration process and 24 hours incubation, cells were collected and Annexin V/PI stain was performed. Cell apoptosis was analyzed by flow cytometry, wherein Annexin V−PI− cells represented the number of the survival mature adipocytes, and Annexin V+PI+ cells represented the number of the apoptotic mature adipocytes; this method is used to compare the apoptosis degree induced by the experimental matters in the two groups.
(In general: In flow cytometry, cells or beads pass a laser one at a time.)

For `COc1cc(/C=C/C(=O)CC(=O)/C=C/c2ccc(O)c(OC)c2)ccc1O` [curcumin], in series [1], the “relative weight of the lower inguinal subcutaneous fat” value is given as 90.4±12.6%. Moreover, the “ulcer / curcumin precipitation in the inferior inguinal region (injection site)” value in series [2] was “curcumin precipitation was observed”. In addition, in series [3], the relative weight gain was found to be 103.6±7.2%. Moreover, in series [4], the “percentage of apoptotic cells” value is given as 15.43±4.31%.

As for `Oc1ccc(C=Cc2cc(O)cc(O)c2)cc1` [resveratrol], the “relative weight of the lower inguinal subcutaneous fat” value in series [1] is 85.7±5.1%. Besides, the “ulcer / curcumin precipitation in the inferior inguinal region (injection site)” value in series [2] is “ulcer”. The relative weight gain in series [3] came out at 91.7±11.4%. Also, the “percentage of apoptotic cells” value in series [4] turned out to be 8.48±3.23%.

sodium deoxycholate: the “mature adipocytes apoptosis compared to DMSO solvent control group” value in series [5] was “no significant difference”.
